Reference: patent US20170007644A1, “A METHOD OF TREATING NEOPLASIA” (FUWAN PTY LTD, priority 2013, published 2017)

Test system: A549-GFP cells (A549/lung cancer cells)
Experiment: Proliferation assay (fluorescence intensity) of A549-GFP cells treated with MLPC and/or doxorubicin
Format: cell-based, human
Details: doxorubicin alone 0.8 μM or 4 μM, 72 hours, FIG. 7
Procedure: Single cell suspensions of A549-GFP, A549-LG, and SKOV3-LG were obtained after trypsinization of the monolayer cultures and counted by trypan blue exclusion. In brief, the cells were seeded at various densities of 1000, 2000, 4000, 5000, 6000, and 10.000 cells into black microliter plates (Nunc) and incubated in 200 microliter culture medium for 3 days. Then the supernatant of cell culture were replaced by 100 microliter Dulbecco's Phosphate buffered saline (DPBS). The fluorescence intensity was determined by excitation and emission on fluorescent microplate reader (BMG).
Single cell suspensions of A549-GFP and SKOV3-LG were obtained by trypsinization of the monolayer cultures and counted by trypan blue exclusion. The proliferation of cancer cells, in particular the downregulation of proliferation, was evaluated by individual, simultaneous, two-stage models. MLPC and a chemotherapeutic drug were added simultaneously to A549-GFP and SKOV3-LG cells for 3 days. In a two-stage experiment, in the first stage MLPC were added to A549-GFP and SKOV3-LG cells for 3 days. In the second stage, supernatants of cells were removed and a chemotherapeutic drug was added for 3 days. […] Fluorescence intensities were determined to evaluate the effect on cancer cell proliferation of the various treatments and control.

With `COc1cccc2c1C(=O)c1c(O)c3c(c(O)c1C2=O)C[C@@](O)(C(=O)CO)C[C@@H]3O[C@H]1C[C@H](N)[C@H](O)[C@H](C)O1` [doxorubicin] the “cancer cell proliferation (relative fluorescence intensity)” value was “significantly reduced cancer cell proliferation”.
